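Compound exposure: 48 hours, 5 concentrations, 96-well plates. At the GI50, growth is halved. Definition used: TGI = concentration required for complete inhibition of growth.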
How the values were obtained:
Test in all cases: NCI tumour cell line growth inhibition, 48 h
[1] = system: TK-10 renal
[2] = system: CAKI-1 renal
[3] = system: SW-620 colon
[4] = system: ACHN renal
[5] = system: HOP-92 NSCLC
[6] = system: MOLT-4 leukemia
[7] = system: KM12 colon
[8] = system: NCI-H226 lung
[9] = system: A549 NSCLC
[10] = system: OVCAR-4 ovarian
[11] = system: COLO 205 colon
[12] = system: OVCAR-3 ovarian
[13] = system: HCC-2998 colon
[14] = system: DU-145 prostate
[15] = system: SF-295 CNS
[16] = system: IGROV1 ovarian
[17] = system: SNB-75 CNS
[18] = system: MCF7 breast
[19] = system: UO-31 renal
[20] = system: HS 578T breast
[21] = system: SR leukemia
[22] = system: HOP-62 NSCLC
[23] = system: HCT-116 colon
[24] = system: NCI/ADR-RES ovarian
[25] = system: 786-0 renal
[26] = system: T-47D breast
[27] = system: M14 melanoma
[28] = system: EKVX NSCLC
[29] = system: SN12C renal
[30] = system: NCI-H23 lung
[31] = system: MDA-MB-435
[32] = system: SF-539 CNS
[33] = system: SF-268 CNS
[34] = system: SK-MEL-2 melanoma
[35] = system: SK-OV-3 ovarian
[36] = system: NCI-H460 lung
[37] = system: UACC-62 melanoma
[38] = system: NCI-H522 lung
[39] = system: BT-549 breast
[40] = system: K-562 leukemia
[41] = system: OVCAR-8 ovarian
[42] = system: PC-3 prostate
[43] = system: CCRF-CEM leukemia
[44] = system: HCT-15 colon
[45] = system: U251 CNS
[46] = system: A498 renal
[47] = system: SNB-19 CNS
[48] = system: HT29 colon
[49] = system: LOX IMVI melanoma
[50] = system: SK-MEL-28 melanoma
[51] = system: MDA-MB-231 breast
[52] = system: MDA-MB-468 breast
[53] = system: OVCAR-5 ovarian
[54] = system: RXF 393 renal
[55] = system: MALME-3M melanoma
[56] = system: HL-60(TB) leukemia
[57] = system: RPMI-8226 leukemia
[58] = system: SK-MEL-5 melanoma
[59] = system: UACC-257 melanoma

Q: What does the source list for `CC1(C)CC[C@]2(C(=O)N3CCOCC3)CC[C@]3(C)C(=CC[C@@H]4[C@@]5(C)CC[C@H](NCO)C(C)(C)[C@@H]5CC[C@]43C)[C@H]2C1`?
A: GI50 [1]: 7.05 µM; TGI [1]: 13.5 µM; GI50 [2]: 915 nM; TGI [2]: 2980 nM; GI50 [3]: 552 nM; TGI [3]: 1060 nM; GI50 [4]: 1720 nM; TGI [4]: 6.11 µM; GI50 [5]: 5.25 µM; TGI [5]: 11.3 µM; GI50 [6]: 767 nM; TGI [6]: 2680 nM; GI50 [7]: 1140 nM; TGI [7]: 4.26 µM; GI50 [8]: 6.61 µM; TGI [8]: 13.6 µM; GI50 [9]: 1580 nM; TGI [9]: 7.01 µM; GI50 [10]: 2500 nM; TGI [10]: 7.62 µM; GI50 [11]: 795 nM; TGI [11]: 1990 nM; GI50 [12]: 961 nM; TGI [12]: 3.43 µM; GI50 [13]: 836 nM; TGI [13]: 2310 nM; GI50 [14]: 1380 nM; TGI [14]: 5.01 µM; GI50 [15]: 1860 nM; TGI [15]: 6.7 µM; GI50 [16]: 4.66 µM; TGI [16]: 9.78 µM; GI50 [17]: 4.39 µM; TGI [17]: 9.51 µM; GI50 [18]: 730 nM; TGI [18]: 2060 nM; GI50 [19]: 4.62 µM; TGI [19]: 9.34 µM; GI50 [20]: 5.22 µM; TGI [20]: 12.5 µM; GI50 [21]: 682 nM; TGI [21]: 2140 nM; GI50 [22]: 8.18 µM; TGI [22]: 18.6 µM; GI50 [23]: 696 nM; TGI [23]: 1580 nM; GI50 [24]: 1990 nM; TGI [24]: 7.09 µM; GI50 [25]: 596 nM; TGI [25]: 1310 nM; GI50 [26]: 5.33 µM; TGI [26]: 15.6 µM; GI50 [27]: 4.11 µM; TGI [27]: 9.71 µM; GI50 [28]: 4.57 µM; TGI [28]: 10 µM; GI50 [29]: 2360 nM; TGI [29]: 6.94 µM; GI50 [30]: 3.74 µM; TGI [30]: 8.72 µM; GI50 [31]: 998 nM; TGI [31]: 5.1 µM; GI50 [32]: 1120 nM; TGI [32]: 4.29 µM; GI50 [33]: 4.78 µM; TGI [33]: 10.4 µM; GI50 [34]: 5.95 µM; TGI [34]: 11.4 µM; GI50 [35]: 6.81 µM; TGI [35]: 13.3 µM; GI50 [36]: 1020 nM; TGI [36]: 3.29 µM; GI50 [37]: 5.86 µM; TGI [37]: 10.7 µM; GI50 [38]: 6.27 µM; TGI [38]: 13.8 µM; GI50 [39]: 6.38 µM; TGI [39]: 12.9 µM; GI50 [40]: 811 nM; TGI [40]: 33.8 µM; GI50 [41]: 1520 nM; TGI [41]: 6.3 µM; GI50 [42]: 4.6 µM; TGI [42]: 10.6 µM; GI50 [43]: 1040 nM; TGI [43]: 3.23 µM; GI50 [44]: 715 nM; TGI [44]: 1760 nM; GI50 [45]: 4.14 µM; TGI [45]: 9.49 µM; GI50 [46]: 5.59 µM; TGI [46]: 10.9 µM; GI50 [47]: 5.71 µM; TGI [47]: 11.3 µM; GI50 [48]: 1960 nM; TGI [48]: 18.6 µM; GI50 [49]: 576 nM; TGI [49]: 1060 nM; GI50 [50]: 5.16 µM; TGI [50]: 9.94 µM; GI50 [51]: 1830 nM; TGI [51]: 5.89 µM; GI50 [52]: 647 nM; TGI [52]: 1400 nM; GI50 [53]: 4.47 µM; TGI [53]: 9.1 µM; GI50 [54]: 886 nM; TGI [54]: 2690 nM; GI50 [55]: 5.2 µM; TGI [55]: 9.97 µM; GI50 [56]: 484 nM; TGI [56]: 1220 nM; GI50 [57]: 1420 nM; TGI [57]: 7.17 µM; GI50 [58]: 5.65 µM; TGI [58]: 11 µM; GI50 [59]: 5.65 µM; TGI [59]: 10.7 µM
